From US12570675B2, “Boronic acid compounds” (LG CHEM, LTD., priority 2020, dated 2026)

biological target: Proteasome chymotrypsin-like activity (S26 protein from RPMI8226 cells) (Homo sapiens, UniProt P28074); type: biochemical; conditions: S26 protein from RPMI8226 cell extract 2 ug/well, substrate 20 uM, 37° C., 90 minutes; read-out: Proteasome chymotrypsin-like activity inhibition IC50
Outline: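 RPMI8226 myeloma cell lysate (S26 fraction, 20 mM Tris-HCl pH 8.0; 2 ug/well) incubated with compound serially diluted from 10 uM (0.5% DMSO) and 20 uM Suc-LLVY-AMC (chymotrypsin-like) or Z-LLE-AMC (caspase-like) for 90 min at 37 °C. Fluorescence read; IC50 from % of uninhibited signal.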

Sequence of Proteasome chymotrypsin-like activity (S26 protein from RPMI8226 cells) (P28074 60-263 limits assumed): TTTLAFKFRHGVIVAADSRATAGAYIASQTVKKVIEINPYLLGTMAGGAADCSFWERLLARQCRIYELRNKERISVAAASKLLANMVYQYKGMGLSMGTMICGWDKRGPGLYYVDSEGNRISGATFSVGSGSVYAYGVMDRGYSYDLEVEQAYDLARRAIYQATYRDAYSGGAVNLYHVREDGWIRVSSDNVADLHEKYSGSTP

Compound | IC50 [µM]
CC(C)C[C@H](NC(=O)C1(Cc2ccccc2)CC(CNC(=O)c2ccn(C(C)C)n2)=NO1)B(O)O (stereo partly drawn) [Example 172, ((1R)-1-(5-benzyl-3-((1-isopropyl-1H-pyrazol-3-carboxamido)methyl)-4,5-dihydroisoxazol-5-carboxamido)-3-methylbutyl)boronic acid] | < 0.01
CC(C)C[C@H](NC(=O)C1(Cc2ccccc2)CC(CNC(=O)c2ccc(OC(C)C)c(C#N)c2)=NO1)B(O)O (stereo partly drawn) [Example 123, [(1R)-1-[[5-benzyl-3-[[(3-cyano-4-isopropoxy-benzoyl)amino]methyl]-4H-1,2-oxazol-5-carbonyl]amino]-3-methyl-butyl]boronic acid] | < 0.01
O=C(N[C@@H](Cc1ccccc1)B(O)O)C1(Cc2ccccc2)CC(COCc2ccccn2)=NO1 (stereo partly drawn) [Example 269, ((1R)-1-(5-benzyl-3-((pyridin-2-ylmethoxy)methyl)-4,5-dihydroisoxazol-5-carboxamido)-2-phenylethyl)boronic acid] | < 0.025
CC(C)C[C@H](NC(=O)C12CCCC1C(CNC(=O)c1nccc3ccccc13)=NO2)B(O)O (stereo partly drawn) [Example 198, ((1R)-1-(3-((isoquinolin-1-carboxamido)methyl)-3a,5,6,6a-tetrahydro-4H-cyclopenta[d]isoxazol-6a-carboxamido)-3-methylbutyl)boronic acid] | < 0.1
CC(C)C[C@H](NC(=O)C1(Cc2ccccc2)CC(CNC(=O)c2cnc3ccccc3n2)=NO1)B(O)O (stereo partly drawn) [Example 122, ((1R)-1-(5-benzyl-3-((quinoxalin-2-carboxamido)methyl)-4,5-dihydroisoxazol-5-carboxamido)-3-methylbutyl)boronic acid] | < 0.01
CC[C@H](NC(=O)C1(Cc2ccccc2)CC(CNC(=O)c2cc(Cl)ccc2Cl)=NO1)B(O)O (stereo partly drawn) [Example 314, ((1R)-1-(5-benzyl-3-((2,5-dichlorobenzamido)methyl)-4,5-dihydroisoxazol-5-carboxamido)propyl)boronic acid] | < 0.01
CC(C)C[C@H](NC(=O)C1(Cc2ccccc2)CC(CN(C)C(=O)c2nccc3ccccc23)=NO1)B(O)O (stereo partly drawn) [Example 99, ((1R)-1-(5-benzyl-3-((N-methylisoquinolin-1-carboxamido)methyl)-4,5-dihydroisoxazol-5-carboxamido)-3-methylbutyl)boronic acid] | < 0.025
CC(C)C[C@H](NC(=O)C1(Cc2ccccc2)CC(CNC(=O)c2cccc(-c3ccccn3)c2)=NO1)B(O)O (stereo partly drawn) [Example 98, ((1R)-1-(5-benzyl-3-((3-(pyridin-2-yl)benzamido)methyl)-4,5-dihydroisoxazol-5-carboxamido)-3-methylbutyl)boronic acid] | < 0.01
CC(C)C[C@H](NC(=O)C1(C2(c3ccccc3)CC2)CC(CNC(=O)c2nccc3ccccc23)=NO1)B(O)O (stereo partly drawn) [Example 180, ((1R)-1-(3-((isoquinolin-1-carboxamido)methyl)-5-(1-phenylcyclopropyl)-4,5-dihydroisoxazol-5-carboxamido)-3-methylbutyl)boronic acid] | < 0.05
COc1ccc(C(=O)NCC2=NOC(Cc3ccccc3)(C(=O)N[C@@H](CC(C)C)B(O)O)C2)cc1 (some centres unmarked) [Example 282] | < 0.01
CC(C)C[C@H](NC(=O)C1(Cc2ccccc2)CC(CNC(=O)c2cc(F)c(F)cc2Cl)=NO1)B(O)O (stereo partly drawn) [Example 163, ((1R)-1-(5-benzyl-3-((2-chloro-4,5-difluorobenzamido)methyl)-4,5-dihydroisoxazol-5-carboxamido)-3-methylbutyl)boronic acid] | < 0.01
COc1cccc(CC2(C(=O)N[C@@H](CC(C)C)B(O)O)CC(CNC(=O)c3cccn4ccnc34)=NO2)c1 (stereo partly drawn) [Example 135, ((1R)-1-(3-((imidazo[1,2-a]pyridin-8-carboxamido)methyl)-5-(3-methoxybenzyl)-4,5-dihydroisoxazol-5-carboxamido)-3-methylbutyl)boronic acid] | < 0.01
COc1ccccc1C(=O)NCC1=NOC(C(=O)N[C@@H](CC(C)C)B(O)O)C1 (stereo partly drawn) [Example 103, ((1R)-1-(3-((2-methoxybenzamido)methyl)-4,5-dihydroisoxazol-5-carboxamido)-3-methylbutyl)boronic acid] | < 0.05
CC(C)C[C@H](NC(=O)C1CC(c2cnccn2)=NO1)B(O)O (stereo partly drawn) [Example 2, ((1R)-3-methyl-1-(3-(pyrazin-2-yl)-4,5-dihydroisoxazol-5-carboxamido)butyl)boronic acid] | < 1
CC(C)C[C@H](NC(=O)C1(Cc2ccccc2)CC(CNC(=O)c2ccnc(Cl)c2)=NO1)B(O)O (some centres unmarked) [Example 311] | < 0.01
CC(C)C[C@H](NC(=O)C1(C(F)(F)c2ccccc2)CC(CNC(=O)c2nccc3ccccc23)=NO1)B(O)O (stereo partly drawn) [Example 155, ((1R)-1-(5-(difluoro(phenyl)methyl)-3-((isoquinolin-1-carboxamido)methyl)-4,5-dihydroisoxazol-5-carboxamido)-3-methylbutyl)boronic acid] | < 0.025

Compound | IC50 [µM]
CC(C)C[C@H](NC(=O)C1(Cc2ccccc2C(F)(F)F)CC(CNC(=O)c2nccc3ccccc23)=NO1)B(O)O (stereo partly drawn) [Example 167, ((1R)-1-(3-((isoquinolin-1-carboxamido)methyl)-5-(2-(trifluoromethyl)benzyl)-4,5-dihydroisoxazol-5-carboxamido)-3-methylbutyl)boronic acid] | < 0.01
CC(C)C[C@H](NC(=O)C1CC(C2CCCCC2)=NO1)B(O)O (stereo partly drawn) [Example 9, ((1R)-1-(3-cyclohexyl-4,5-dihydroisoxazol-5-carboxamido)-3-methylbutyl)boronic acid] | < 0.5
Cc1cc(C(=O)NCC2=NOC(Cc3cccc(Cl)c3)(C(=O)N[C@@H](CC(C)C)B(O)O)C2)n(C(C)C)n1 (stereo partly drawn) [Example 225, ((1R)-1-(5-(3-chlorobenzyl)-3-((1-isopropyl-3-methyl-1H-pyrazol-5-carboxamido)methyl)-4,5-dihydroisoxazol-5-carboxamido)-3-methylbutyl)boronic acid] | < 0.01
CC(C)C[C@H](NC(=O)C1(Cc2ccccc2)CC(COCc2cccc(-c3ccccc3)c2)=NO1)B(O)O (stereo partly drawn) [Example 54, ((1R)-1-(3-(([1,1′-biphenyl]-3-ylmethoxy)methyl)-5-benzyl-4,5-dihydroisoxazol-5-carboxamido)-3-methylbutyl)boronic acid] | < 0.01
CC(C)C[C@H](NC(=O)C1CC(CNC(=O)c2ccc(C(C)(C)C)cc2)=NO1)B(O)O (stereo partly drawn) [Example 70, ((1R)-1-(3-((4-(tert-butyl)benzamido)methyl)-4,5-dihydroisoxazol-5-carboxamido)-3-methylbutyl)boronic acid] | < 0.1
CC(C)C[C@H](NC(=O)C1(Cc2ccccc2)CC(CNC(=O)c2cnn(C)c2)=NO1)B(O)O (stereo partly drawn) [Example 220, ((1R)-1-(5-benzyl-3-((1-methyl-1H-pyrazol-4-carboxamido)methyl)-4,5-dihydroisoxazol-5-carboxamido)-3-methylbutyl)boronic acid] | < 0.01
CC[C@H](NC(=O)C1(Cc2ccccc2)CC(CNC(=O)c2cccn3ccnc23)=NO1)B(O)O (stereo partly drawn) [Example 297, ((1R)-1-(5-benzyl-3-((imidazo[1,2-a]pyridin-8-carboxamido)methyl)-4,5-dihydroisoxazol-5-carboxamido)propyl)boronic acid] | < 0.025
Cc1cccc(CC2(C(=O)N[C@@H](CC(C)C)B(O)O)CC(CNC(=O)c3cc(C(C)(C)C)nn3C(C)C)=NO2)c1 (stereo partly drawn) [Example 237, ((1R)-1-(3-((3-(tert-butyl)-1-isopropyl-1H-pyrazol-5-carboxamido)methyl)-5-(3-methylbenzyl)-4,5-dihydroisoxazol-5-carboxamido)-3-methylbutyl)boronic acid] | < 0.01
O=C(NCC1=NOC(Cc2ccccc2)(C(=O)N[C@@H](Cc2ccccc2)B(O)O)C1)c1cccn2cnnc12 (stereo partly drawn) [Example 306, ((1R)-1-(3-(([1,2,4]triazolo[4,3-a]pyridin-8-carboxamido)methyl)-5-benzyl-4,5-dihydroisoxazol-5-carboxamido)-2-phenylethyl)boronic acid] | < 0.01
CCC1(C(=O)N[C@@H](CC(C)C)B(O)O)CC(c2ccccc2)=NO1 (stereo partly drawn) [Example 4, ((1R)-1-(5-ethyl-3-phenyl-4,5-dihydroisoxazol-5-carboxamido)-3-methylbutyl)boronic acid] | > 1
CC(C)C[C@H](NC(=O)C1(Cc2ccccc2)CC(COCc2cccc(Br)n2)=NO1)B(O)O (stereo partly drawn) [Example 53, ((1R)-1-(5-benzyl-3-(((6-bromopyridin-2-yl)methoxy)methyl)-4,5-dihydroisoxazol-5-carboxamido)-3-methylbutyl)boronic acid] | < 0.01
COCC1(C(=O)N[C@@H](CC(C)C)B(O)O)CC(CNC(=O)c2nccc3ccccc23)=NO1 (stereo partly drawn) [Example 192, ((1R)-1-(3-((isoquinolin-1-carboxamido)methyl)-5-(methoxymethyl)-4,5-dihydroisoxazol-5-carboxamido)-3-methylbutyl)boronic acid] | < 0.01
O=C(N[C@@H](Cc1ccccc1)B(O)O)C1(Cc2ccccc2)CC(COCc2cccc(Cl)c2)=NO1 (stereo partly drawn) [Example 261, ((1R)-1-(5-benzyl-3-(((3-chlorobenzyl)oxy)methyl)-4,5-dihydroisoxazol-5-carboxamido)-2-phenylethyl)boronic acid] | < 0.025
CC(C)C[C@H](NC(=O)C1(Cc2ccccc2)CC(CNC(=O)c2cocn2)=NO1)B(O)O (stereo partly drawn) [Example 168, ((1R)-1-(5-benzyl-3-((oxazol-4-carboxamido)methyl)-4,5-dihydroisoxazol-5-carboxamido)-3-methylbutyl)boronic acid] | < 0.025
Cc1cc(C(=O)NCC2=NOC(C(=O)N[C@@H](CC(C)C)B(O)O)C2)no1 (stereo partly drawn) [Example 81, ((1R)-3-methyl-1-(3-((5-methylisoxazol-3-carboxamido)methyl)-4,5-dihydroisoxazol-5-carboxamido)butyl)boronic acid] | < 0.25
CC(C)C[C@H](NC(=O)C1(Cc2ccccc2)CC(CNC(=O)c2cccc3nccn23)=NO1)B(O)O (some centres unmarked) [Example 301] | < 0.01
